From patent US20020040062A1, “Protein kinase C activators and their use in decreasing expression of cell antigens” (The Trustees of Columbia University, priority 1993, published 2002)
Like-named read-outs stand apart in the source and are kept apart here. Marks after values point to notes of the source that are not given here.

Assays:
T47D cells = assay: T47D cell growth assay (Coulter Counter); format: cell-based, human; conditions: for effect on 72 hr growth: 0.1 μg/ml, FIG. 1
Protocol: FIG. 1: Effect of H-7, TPA, MEZ and ADMB on T47D cell growth and DNA synthesis. Cell growth assays are presented in (A). T47D cells were seeded at 1×10^4 cells/35 mm tissue culture plate, the medium was changed with the indicated compounds 24 hr later and cell numbers were determined after an additional 72 hr growth at 37° C. by Coulter Counter. Results are the average of triplicate samples/experimental condition which varied by ≦10%. DNA synthesis assays are presented in (B). T47 D cells were seeded at 1.25×10^4 cells in 0.2 ml of media in 96 microtiter plates. Every 24 hr, cultures received 1 μCi of methyl-^3H-thymidine and 8 hr later cells were harvested and TCA precipitable counts were determined. Results are the average from replicate samples exposed to the indicated compounds for 72 hr. Replicate samples varied by ≦10% and replicate studies varied by ≦15%. Further details can be found in “Detailed Description Of The Invention”.
T47D cells were seeded at 5×10^3 cells/ml in 35 mm tissue culture plates and 24 hr later the medium was changed with the indicated compounds. Seventy-two hr later the cells were resuspended in trysin/versene (0.125%/0.02%, w/w) and counted using a ZM Coulter Counter (Coulter Electronics). For ^3H-thymidine incorporation studies, T47D cells were seeded at 1.25×10^4 cells in 0.2 ml of media in 96 well microtiter plates. Every 24 hr, plates received 1 μCi of methyl-^3H-thymidine (specific activity […]) (ICN Radiochemicals, Irvine, Calif.), cells were harvested 8 hr after the addition of labeled thymidine and TCA precipitable counts were determined using a Packard scintillation counter. Replicate samples varied by ≦10% and replicate studies varied by ≦15%.

CA19.9 = assay: FACS analysis of CA19.9 (MoAb B67.4) in CBS human colon carcinoma cells; format: cell-based; conditions: 96 hours
Protocol: (§1) Cells were plated in 10 cm plates, media was changed 24 hours later with no addition (control) or addition of the indicated compounds and cells were incubated at 37° C. for 96 hours. Cells were resuspended using 10× EDTA and antigen expression was determined as described (Leon, Mesa-Tejada, Gutierrez, Estabrook, Breiner, Schlom & Fisher: Anticancer Res. 9:1639-1648, 1989; Leon, Gutierrez, Jiang, Estabrook, Waxman & Fisher: Cancer Immuno. Immunother. 35:315-324 1992).

MoAb K56 = assay: FACS analysis of MoAb K56 binding in WiDr human colon carcinoma cells; format: cell-based
Protocol: as §1, with “for the indicated time (72 or” for “for”, “hours).” for “hours.”, “Greiner,” for “Breiner,”, “Immunol. Immmunother. 35:315-324,” for “Immuno. Immunother. 35:315-324”

[1] = 72 Hour Treatment, MEZ 100 ng/ml, IFN-γ 100 U/ml
[2] = 96 Hour Treatment, MEZ 100 ng/ml, IFN-γ 100 U/ml

Molecule: CCCCCCCCCCCCCC(=O)O[C@@H]1[C@@H](C)[C@@]2(O)[C@@H](C=C(CO)C[C@]3(O)C(=O)C(C)=C[C@@H]23)[C@H]2C(C)(C)[C@]12OC(C)=O [TPA, 12-0-tetradecanoyl-phorbol-13-acetate]
- 72 hr growth suppression in combination with H-7 (T47D cells): No additive or synergistic effect
- effect on 72 hr growth (T47D cells; T47D cells): suppressed to the greatest degree

Molecule: C=C(C)[C@@]12O[C@@]3(c4ccccc4)O[C@@H]1[C@@H]1[C@@H]4O[C@]4(CO)[C@@H](O)[C@]4(O)C(=O)C(C)=C[C@H]4[C@@]1(O3)[C@H](C)[C@H]2OC(=O)/C=C/C=C/c1ccccc1 [MEZ, mezerein]
- Monoclonal Antibody Binding (MFI) MoAb B67.4 (CA19.9) (CA19.9; MEZ 1100 ng/ml, IFN-γ 100 U/ml): 3288* MFI
- effect on 72 hr growth (T47D cells; T47D cells): only marginally altered
- 72 hr growth suppression in combination with H-7 (T47D cells; T47D cells, in combination with 0.1 μg/ml of H-7, data not shown): No additive or synergistic effect
- Monoclonal Antibody Binding (MFI) MoAb K56 (MoAb K56; [1]): 964* MFI
- Monoclonal Antibody Binding (MFI) MoAb K56 (MoAb K56; [2]): 1104 MFI

Molecule: CCCCCCCCCCN(C)c1cc(CO)cc(NC(C)=O)c1 [ADMB, 3-(N-acetylamino)-5-(N-decyl-N-methylamino)-benzyl alcohol]
- Monoclonal Antibody Binding (MFI) MoAb B67.4 (CA19.9) (CA19.9; ADMB 0.01 μg/ml): 3562* MFI
- Monoclonal Antibody Binding (MFI) MoAb B67.4 (CA19.9) (CA19.9; ADMB 0.1 μg/ml): 3473* MFI
- Monoclonal Antibody Binding (MFI) MoAb B67.4 (CA19.9) (CA19.9; ADMB 1.0 g/ml): 3962* MFI
- effect on 72 hr growth (T47D cells; T47D cells): only marginally altered
- Monoclonal Antibody Binding (MFI) MoAb K56 (MoAb K56; 72 Hour Treatment, ADMB 0.01 μg/ml): 844 MFI
- Monoclonal Antibody Binding (MFI) MoAb K56 (MoAb K56; 72 Hour Treatment, ADMB 0.1 μg/ml): 715 MFI
- Monoclonal Antibody Binding (MFI) MoAb K56 (MoAb K56; 72 Hour Treatment, ADMB 1.0 μg/ml): 879 MFI
- Monoclonal Antibody Binding (MFI) MoAb K56 (MoAb K56; 96 Hour Treatment, ADMB 0.01 μg/ml): 827 MFI
- Monoclonal Antibody Binding (MFI) MoAb K56 (MoAb K56; 96 Hour Treatment, ADMB 0.1 μg/ml): 1116 MFI
- Monoclonal Antibody Binding (MFI) MoAb K56 (MoAb K56; 96 Hour Treatment, ADMB 1.0 μg/ml): 1008 MFI

B1: IFN-γ: recombinant human immune interferon produced in Escherichia coli (protein, UniProt P01579 24-161, looked up)
Interferon gamma: QDPYVKEAENLKKYFNAGHSDVADNGTLFLGILKNWKEESDRKIMQSQIVSFYFKLFKNFKDDQSIQKSVETIKEDMNVKFFNSNKKKRDDFEKLTNYSVTDLNVQRKAIHELIQVMAELSPAAKTGKRKRSQMLFRG
- Monoclonal Antibody Binding (MFI) MoAb B67.4 (CA19.9) (CA19.9; MEZ 1100 ng/ml, IFN-γ 100 U/ml): 4970* MFI
- Monoclonal Antibody Binding (MFI) MoAb K56 (MoAb K56; [1]): 1046* MFI
- Monoclonal Antibody Binding (MFI) MoAb K56 (MoAb K56; [2]): 1021 MFI
